Patent publication US20100150834A1, “HIGH AFFINITY EPHB RECEPTOR BINDING COMPOUNDS AND METHODS OF USE THEREOF” (priority 2006, published 2010)
Where two headings read alike, the source gives them in different places. No end group written: not given here.

Legend:
[1] = test system: EphB1; experiment: EphB receptor specificity (% binding), Table 1; settings: binding to EphB1
[2] = molecular target: EphB2 (Homo sapiens, UniProt P29323); experiment: EphB receptor specificity (% binding), Table 1; settings: binding to EphB2
Sequence of EphB2 (P29323 19-1055): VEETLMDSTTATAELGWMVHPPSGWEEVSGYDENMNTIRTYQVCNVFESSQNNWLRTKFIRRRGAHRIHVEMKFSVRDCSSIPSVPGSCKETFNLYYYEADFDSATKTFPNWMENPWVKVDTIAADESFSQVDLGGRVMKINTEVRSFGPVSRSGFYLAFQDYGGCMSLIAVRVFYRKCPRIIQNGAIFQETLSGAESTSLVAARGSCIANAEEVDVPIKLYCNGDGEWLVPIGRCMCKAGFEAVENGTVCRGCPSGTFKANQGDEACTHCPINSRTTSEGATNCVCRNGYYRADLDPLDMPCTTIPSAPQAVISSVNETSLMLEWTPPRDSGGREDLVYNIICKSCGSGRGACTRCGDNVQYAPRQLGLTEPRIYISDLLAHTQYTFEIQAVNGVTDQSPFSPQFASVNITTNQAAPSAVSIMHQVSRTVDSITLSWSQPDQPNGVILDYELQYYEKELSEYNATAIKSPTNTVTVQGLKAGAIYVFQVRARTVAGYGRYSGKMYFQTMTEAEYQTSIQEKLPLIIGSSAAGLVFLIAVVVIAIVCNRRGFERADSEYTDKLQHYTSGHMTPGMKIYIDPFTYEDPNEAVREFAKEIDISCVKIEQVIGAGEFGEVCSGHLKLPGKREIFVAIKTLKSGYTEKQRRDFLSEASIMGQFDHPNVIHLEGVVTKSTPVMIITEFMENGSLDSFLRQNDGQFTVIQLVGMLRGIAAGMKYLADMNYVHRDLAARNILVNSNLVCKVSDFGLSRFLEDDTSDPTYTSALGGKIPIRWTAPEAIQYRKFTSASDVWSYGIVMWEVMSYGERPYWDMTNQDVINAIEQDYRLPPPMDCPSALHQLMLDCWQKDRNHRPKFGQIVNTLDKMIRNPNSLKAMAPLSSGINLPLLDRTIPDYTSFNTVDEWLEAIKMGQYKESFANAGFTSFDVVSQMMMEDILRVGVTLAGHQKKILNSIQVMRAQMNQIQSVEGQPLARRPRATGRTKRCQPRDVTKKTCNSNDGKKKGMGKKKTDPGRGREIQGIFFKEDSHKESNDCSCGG

[3] = molecular target: T1, EphB1 (Homo sapiens, UniProt P54762); experiment: Inhibition of ephrin-B2 AP binding by peptides panned on EphB1 (Table 1)
T1 sequence (P54762 18-540 limits assumed): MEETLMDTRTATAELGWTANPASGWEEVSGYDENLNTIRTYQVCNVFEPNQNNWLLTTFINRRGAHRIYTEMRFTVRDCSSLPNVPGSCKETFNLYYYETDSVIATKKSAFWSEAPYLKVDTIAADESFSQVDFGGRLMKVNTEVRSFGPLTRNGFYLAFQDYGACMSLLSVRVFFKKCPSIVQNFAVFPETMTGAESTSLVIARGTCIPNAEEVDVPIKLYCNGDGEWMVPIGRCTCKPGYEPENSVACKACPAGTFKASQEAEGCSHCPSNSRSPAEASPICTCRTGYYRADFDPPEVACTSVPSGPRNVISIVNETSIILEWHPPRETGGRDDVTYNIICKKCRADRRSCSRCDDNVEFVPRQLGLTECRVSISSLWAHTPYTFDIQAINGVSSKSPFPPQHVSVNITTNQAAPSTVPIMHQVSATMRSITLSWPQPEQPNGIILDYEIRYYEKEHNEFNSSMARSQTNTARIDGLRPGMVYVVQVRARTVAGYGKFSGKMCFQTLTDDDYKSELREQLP

[4] = molecular target: T2, EphB4 (Mus musculus, UniProt P54761); experiment: EphB receptor specificity (% binding), Table 1; settings: binding to EphB4
T2 sequence (P54761 16-987): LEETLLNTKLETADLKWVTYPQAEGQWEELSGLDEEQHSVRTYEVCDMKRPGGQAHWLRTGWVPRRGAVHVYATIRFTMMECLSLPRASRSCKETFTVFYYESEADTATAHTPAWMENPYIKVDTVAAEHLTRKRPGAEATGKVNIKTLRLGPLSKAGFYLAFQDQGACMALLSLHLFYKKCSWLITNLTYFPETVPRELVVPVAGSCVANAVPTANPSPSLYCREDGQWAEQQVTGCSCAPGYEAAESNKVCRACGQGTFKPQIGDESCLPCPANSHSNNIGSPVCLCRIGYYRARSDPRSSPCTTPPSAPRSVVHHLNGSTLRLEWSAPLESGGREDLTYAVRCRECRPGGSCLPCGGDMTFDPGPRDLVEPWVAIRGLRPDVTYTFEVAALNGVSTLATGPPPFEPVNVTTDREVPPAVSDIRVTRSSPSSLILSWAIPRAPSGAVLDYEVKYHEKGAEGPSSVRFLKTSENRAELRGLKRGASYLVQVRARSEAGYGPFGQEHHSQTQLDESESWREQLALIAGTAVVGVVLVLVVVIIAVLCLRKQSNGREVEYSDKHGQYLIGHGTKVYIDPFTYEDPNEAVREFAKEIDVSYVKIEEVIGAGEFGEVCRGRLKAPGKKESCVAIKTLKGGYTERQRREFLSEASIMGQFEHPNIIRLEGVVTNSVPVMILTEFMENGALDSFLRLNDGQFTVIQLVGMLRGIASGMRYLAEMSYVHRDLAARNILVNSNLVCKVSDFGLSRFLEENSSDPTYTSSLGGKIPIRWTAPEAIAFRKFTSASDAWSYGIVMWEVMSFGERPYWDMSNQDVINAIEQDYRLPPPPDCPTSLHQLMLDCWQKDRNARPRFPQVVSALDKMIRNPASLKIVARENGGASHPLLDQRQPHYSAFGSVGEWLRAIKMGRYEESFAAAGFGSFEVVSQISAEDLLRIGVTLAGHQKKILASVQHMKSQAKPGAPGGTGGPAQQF

[5] = molecular target: T3, murine EphB4 (Mus musculus, UniProt P54761); experiment: Binding ELISA on immobilized murine EphB4-Fc, streptavidin-HRP detection (Table 3); settings: binding to murine EphB4; based on the estimated concentration of peptide-coupled PEG molecules; read-out: KD ± SE
T3 construct: purchased R&D Systems 446-B4-200
T3 sequence (P54761 16-539 limits assumed): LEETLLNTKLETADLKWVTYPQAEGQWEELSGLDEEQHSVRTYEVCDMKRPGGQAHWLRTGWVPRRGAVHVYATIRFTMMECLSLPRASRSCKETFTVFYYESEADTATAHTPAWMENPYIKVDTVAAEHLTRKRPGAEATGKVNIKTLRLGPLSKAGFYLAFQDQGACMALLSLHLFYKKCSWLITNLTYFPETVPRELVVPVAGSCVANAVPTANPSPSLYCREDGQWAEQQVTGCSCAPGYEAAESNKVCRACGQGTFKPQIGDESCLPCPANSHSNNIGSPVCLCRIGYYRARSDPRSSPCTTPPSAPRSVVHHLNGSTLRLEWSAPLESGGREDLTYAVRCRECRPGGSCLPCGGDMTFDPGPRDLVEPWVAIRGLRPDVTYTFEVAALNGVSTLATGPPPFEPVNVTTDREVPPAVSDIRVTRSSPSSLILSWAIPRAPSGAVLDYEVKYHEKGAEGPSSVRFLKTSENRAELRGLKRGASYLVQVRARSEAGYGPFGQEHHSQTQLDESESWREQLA
Procedure: The dissociation constants in Table 3 were measured in binding assays as described below. Reacti-bind Protein A coated strip plates were washed three times with the wash buffer TBST/Ca (TBS, 0.01% Tween, 1 mM CaCl2). Plates were coated with murine EphB4-Fc (reconstituted in PBS 200 μg/ml, diluted to 1 μg/ml in TBST/Ca) 100 μl/well for 1 hour at ambient temperature. The plates were washed four times with TBST/Ca. PEG-TNYL-RAW-biotin (made by The Burnham Institute, La Jolla, Calif.), obtained from the PEGylation reaction described in Example 2 supra, was added at different concentrations in TBST/Ca (100 μl/well) for 1 hour at ambient temperature. The plates were again washed four times with TBST/Ca. Streptavidin-HRP (1:2000) in 100 μl TBST/Ca was added for 1 hour at ambient temperature. The plates were again washed four times with TBST/Ca.

[6] = molecular target: T4, murine EphB4/murine ephrin-B2 (Mus musculus, UniProt P54761); experiment: Inhibition of murine EphB4-AP binding to immobilized murine ephrin-B2-Fc (Table 4); settings: based on the estimated concentration of peptide-coupled PEG molecules, No PEG control not biotinylated
T4 sequence (P54761 16-539 limits assumed): T3 sequence (P54761 16-539 limits assumed)
Procedure: The IC50 values in Table 4 were obtained from inhibition assays. […] Reati-bind Protein A coated strip plates were washed three times with wash buffer TBST/Ca. Plates were coated with murine ephrin-B2-Fc (reconstituted in PBS 200 μg/ml, diluted to 1 μg/ml with TBST/Ca) 100 μl/well for 1 h at ambient temperature. The control used was Human-Fc (1 μg/ml; 100 μl/well); Human-Fc is the control for ephrin-B2-Fc, which contains the extracellular domain of ephrin-B2 fused to the Fc portion of human IgG1. The plates were washed four times with TBST/Ca. For each well was added: PEG-TNYL-RAW-biotin, from PEGylation reaction in Example 2, supra, at different concentrations; 10 μl murine EphB4-Alkaline Phosphatase (EphB4-AP); and TBST/Ca to 50 μl. Plates were incubates for 3 hours at ambient temperature, then washed four times with TBST/Ca. Substrate, 1 mg/ml PNPP in SEAP buffer, was added in the amount of 100 μl/well. (2×SEAP buffer (pH=9.8) was prepared by: adding 2.1 ml diethanolamine and 10 μl 1M MgCl2 to 10 ml (total) water; adjusting pH to 9.8; wrapping in foil and storing at ambient temperature; and diluting with water to 1× on day of use). Optical density analysis (OD405) was performed using a plate reader to determine the extent to which PEG-TNYL-RAW-biotin inhibits the EphB4-ephrin-B2 interaction. […]

AHTFPYPHPKPH [compound 3]
EphB Receptor Specificity (% Binding) B1 [1]: 100% | EphB Receptor Specificity (% Binding) B2 [2]: 4% | IC50 [3]: ~150 µM

CC[C@H](C)[C@H](NC(=O)[C@@H]1CCCN1C(=O)CNC(=O)[C@H](CC(N)=O)NC(=O)[C@@H]1CCCN1C(=O)[C@H](CO)NC(=O)[C@H](Cc1ccccc1)NC(=O)[C@H](CC(C)C)NC(=O)[C@H](Cc1ccc(O)cc1)NC(=O)[C@H](CC(N)=O)NC(=O)[C@@H](N)[C@@H](C)O)C(=O)N[C@@H](C)C(=O)O [compound 24]
EphB Receptor Specificity (% Binding) B1 [1]: 5%

35 (SGHQLLNKMPN; EphB4-binding peptide) [compound 35]
EphB Receptor Specificity (% Binding) B4 [4]: 100%

DHNHNLYNPWRL [compound 21]
EphB Receptor Specificity (% Binding) B1 [1]: 9% | EphB Receptor Specificity (% Binding) B2 [2]: 8%

10 Kd (monomer): one TNYL-RAW peptide (with biotin) conjugated to a 10 kDa PEG molecule (TNYLFSPNGPIARAW; also: conjugated to a 10 kDa PEG, site not given here, biotin, position not given here)
Kd [5]: 1.4 ± 0.7 nM | IC50 [6]: 21 ± 5 nM

EWYMKFPPEHYF [compound 19]
EphB Receptor Specificity (% Binding) B1 [1]: 22%

10 Kd (dimer): two TNYL-RAW peptides (with biotin) conjugated to a 10 kDa bifunctional PEG (SMB-PEG-SMB) (TNYLFSPNGPIARAW; also: biotin, position not given here, dimer: two peptides joined by 10 kDa bifunctional PEG (SMB-PEG-SMB))
Kd [5]: 0.9 ± 0.2 nM | IC50 [6]: 9 ± 2 nM

CC[C@H](C)[C@H](NC(=O)[C@@H](NC(=O)[C@@H]1CCCN1C(=O)[C@@H](N)CC(N)=O)C(C)C)C(=O)NCC(=O)N1CCC[C@H]1C(=O)N[C@H](C(=O)N[C@@H](CCC(N)=O)C(=O)N[C@@H](CCCNC(=N)N)C(=O)N[C@@H](C)C(=O)N[C@@H](Cc1c[nH]c2ccccc12)C(=O)N[C@H](C(=O)O)[C@@H](C)O)[C@@H](C)CC [compound 27]
EphB Receptor Specificity (% Binding) B1 [1]: 1%

3.4 Kd (dimer): two TNYL-RAW peptides (with biotin) conjugated to a 3.4 kDa bifunctional PEG (SMB-PEG-SMB) (TNYLFSPNGPIARAW; also: biotin, position not given here, dimer: two peptides joined by 3.4 kDa bifunctional PEG (SMB-PEG-SMB))
Kd [5]: 0.9 ± 0.3 nM

CC[C@H](C)[C@H](NC(=O)[C@@H]1CCCN1C(=O)[C@H](Cc1c[nH]c2ccccc12)NC(=O)[C@H](Cc1c[nH]cn1)NC(=O)[C@@H](N)CO)C(=O)N[C@@H](CO)C(=O)N1CCC[C@H]1C(=O)N[C@@H](Cc1ccc(O)cc1)C(=O)N[C@@H](CO)C(=O)N[C@@H](CC(C)C)C(=O)N[C@@H](CC(C)C)C(=O)N[C@@H](CO)C(=O)O [compound 14]
EphB Receptor Specificity (% Binding) B1 [1]: 39%

CC[C@H](C)[C@H](NC(=O)[C@H](C)NC(=O)[C@H](Cc1ccccc1)NC(=O)[C@@H]1CCCN1C(=O)[C@H](CCC(=O)O)NC(=O)[C@@H](NC(=O)[C@@H](NC(=O)[C@H](Cc1c[nH]c2ccccc12)NC(=O)[C@H](Cc1c[nH]cn1)NC(=O)[C@@H](N)Cc1c[nH]c2ccccc12)[C@@H](C)O)[C@@H](C)CC)C(=O)N[C@H](C(=O)N[C@@H](CO)C(=O)O)[C@@H](C)O [compound 8]
EphB Receptor Specificity (% Binding) B1 [1]: 99%

FSPQGPAARNFA [compound 25]
EphB Receptor Specificity (% Binding) B1 [1]: 13%

TNYLFSPNGPIARAW [TNYL-RAW]
stability in cell conditioned medium (cell conditioned medium in the absence of the cells (FIG. 3C)): rapidly lost | stability in cell culture medium with PC3 cells (medium replaced with fresh medium just before adding the peptide (FIG. 3B)): remained intact for several hours | stability in cell conditioned medium with protease inhibitors (mixture of protease inhibitors (aprotinin, PMSF, leupeptin, pepstatin) added to conditioned medium (FIG. 3D)): reduce peptide instability

EWLSPNLAPSVR [compound 1]
EphB Receptor Specificity (% Binding) B2 [2]: 2% | IC50 ([3]; panning receptor EphB1): ~10 µM

TYFDFQAWSIRA [compound 22]
EphB Receptor Specificity (% Binding) B1 [1]: 10%

CC[C@H](C)[C@H](NC(=O)[C@H](CCCNC(=N)N)NC(=O)[C@H](Cc1c[nH]c2ccccc12)NC(=O)[C@H](Cc1c[nH]cn1)NC(=O)[C@@H](N)CC(=O)O)C(=O)N[C@@H](CC(C)C)C(=O)N1CCC[C@H]1C(=O)N[C@@H](Cc1ccccc1)C(=O)N[C@@H](CO)C(=O)N[C@@H](CC(C)C)C(=O)N[C@@H](CO)C(=O)N[C@@H](CO)C(=O)O [compound 10]
EphB Receptor Specificity (% Binding) B1 [1]: 53%

CC(C)C[C@H](NC(=O)[C@H](C)NC(=O)[C@@H](N)CC(=O)O)C(=O)N[C@@H](CC(N)=O)C(=O)N[C@@H](CC(=O)O)C(=O)N[C@@H](Cc1c[nH]c2ccccc12)C(=O)N[C@@H](CC(C)C)C(=O)N[C@@H](CC(C)C)C(=O)N[C@@H](Cc1ccccc1)C(=O)N[C@@H](CCCNC(=N)N)C(=O)N1CCC[C@H]1C(=O)N[C@@H](Cc1c[nH]c2ccccc12)C(=O)O [compound 20]
EphB Receptor Specificity (% Binding) B1 [1]: 0%
